From PubChem BioAssay (NCI)
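All cell lines were grown in 96-well plates and treated with compound for 48 hours. TGI marks complete inhibition of growth.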

How the values were obtained:
Assay in all cases: DTP human tumour cell line panel, 48 h
[1] = tested on: TK-10 renal
[2] = tested on: HOP-62 NSCLC
[3] = tested on: NCI-H23 lung
[4] = tested on: A498 renal
[5] = tested on: HOP-92 NSCLC
[6] = tested on: K-562 leukemia
[7] = tested on: M14 melanoma
[8] = tested on: OVCAR-8 ovarian
[9] = tested on: HS 578T breast
[10] = tested on: NCI-H226 lung
[11] = tested on: UACC-257 melanoma
[12] = tested on: SF-539 CNS
[13] = tested on: SK-MEL-5 melanoma
[14] = tested on: SK-MEL-2 melanoma
[15] = tested on: CAKI-1 renal
[16] = tested on: OVCAR-5 ovarian
[17] = tested on: SF-268 CNS
[18] = tested on: MOLT-4 leukemia
[19] = tested on: MDA-MB-435
[20] = tested on: MDA-MB-231 breast

Row | Structure (SMILES) | TGI [1] [µM] | TGI [2] [µM] | TGI [3] [µM] | TGI [4] [µM] | TGI [5] [µM] | TGI [6] [µM] | TGI [7] [µM] | TGI [8] [µM] | TGI [9] [µM] | TGI [10] [µM] | TGI [11] [µM] | TGI [12] [µM] | TGI [13] [µM] | TGI [14] [µM] | TGI [15] [µM] | TGI [16] [µM] | TGI [17] [µM] | TGI [18] [µM] | TGI [19] [µM] | TGI [20] [µM]
1 | CCOC(=O)/C(=C\NCC(OCC)OCC)c1nc2ccccc2[nH]1 | > 100 | > 100 | 56.4 | > 100 | > 100 | 81 | > 100 | > 100 | > 100 | > 100 | 58.7 | > 100 | 28.5 | 44.7 | > 100 | > 100 | > 100 | 41.3 | 73.3 | –
2 | NCC#CCNCCCN1CC1 | > 100 | > 100 | > 100 | > 100 | > 100 | > 100 | > 100 | > 100 | > 100 | > 100 | > 100 | > 100 | > 100 | > 100 | > 100 | > 100 | > 100 | – | > 100 | –
3 | CCOC(=O)n1[nH]c(=O)n(-c2ccccc2)c1=O | > 100 | > 100 | > 100 | – | – | > 100 | > 100 | > 100 | > 100 | > 100 | > 100 | – | > 100 | > 100 | > 100 | > 100 | > 100 | > 100 | > 100 | > 100
4 | CC(=O)OCC1OC(n2c(C)c(N=Nc3ccccc3)c(C)c(C#N)c2=S)C(OC(C)=O)C(OC(C)=O)C1OC(C)=O (configuration not stated) | 81.8 | 34.5 | > 100 | – | 28 | > 100 | > 100 | – | 44.8 | – | > 100 | > 100 | > 100 | 62.2 | > 100 | > 100 | > 100 | > 100 | > 100 | 62.3
5 | CCCN1CN(C(C(=O)N[C@@H]2C(=O)N3C2SC(C)(C)C3C(=O)O)c2ccccc2)CSC1=S (some centres not stated) | > 100 | > 100 | > 100 | > 100 | > 100 | > 100 | > 100 | > 100 | – | – | > 100 | > 100 | > 100 | > 100 | > 100 | > 100 | > 100 | > 100 | – | –
6 | O=C(Cn1cc(-c2ccccc2)nn1)NC1CCCC1 | > 100 | > 100 | > 100 | – | > 100 | > 100 | > 100 | > 100 | – | > 100 | > 100 | > 100 | > 100 | > 100 | > 100 | > 100 | > 100 | > 100 | > 100 | > 100
7 | CC(C)OCC(O)COc1ccc2ccc(=O)oc2c1 (configuration not stated) | > 100 | > 100 | > 100 | – | > 100 | > 100 | > 100 | > 100 | > 100 | – | > 100 | – | > 100 | – | > 100 | > 100 | > 100 | > 100 | > 100 | > 100
8 | Cc1ccc2c(=O)cc(-c3cccc4ccccc34)[nH]c2n1 | – | > 100 | > 100 | 0.0568 | 32 | > 36.8 | > 100 | 0.305 | > 91.5 | 35.2 | > 100 | – | 0.0897 | 2.47 | > 100 | > 47.1 | > 32.4 | > 100 | – | > 100
9 | CN(c1ccccc1)S(=O)(=O)c1ccccc1[N+](=O)[O-] | > 100 | > 100 | > 100 | – | – | > 100 | > 100 | > 100 | > 100 | > 100 | > 100 | > 100 | – | > 100 | > 100 | > 100 | > 100 | > 100 | > 100 | > 100
10 | COc1ccc(CNc2nc3cc(C(F)(F)F)ccc3nc2C(=O)O)cc1OC | – | 66.1 | > 100 | 73.2 | > 100 | 74.7 | > 100 | > 100 | – | > 100 | > 100 | > 100 | 43.7 | 51.8 | > 100 | > 100 | – | 55.7 | 80.2 | > 100
11 | NNC(=O)c1ccccc1Nc1ccccc1C(=O)NN | > 100 | > 100 | > 100 | – | – | > 100 | > 100 | > 100 | > 100 | > 100 | > 100 | > 100 | > 100 | > 100 | > 100 | > 100 | > 100 | > 100 | > 100 | > 100
12 | COC(=O)C[C@@H]1C(C)(C)[C@@H]2O[C@@]34C[C@@H]2C(=O)[C@]1(C)[C@H]3CC[C@@]1(C)[C@H](c2ccoc2)OC(=O)C[C@]14O | > 100 | > 100 | > 100 | > 100 | > 100 | > 100 | > 100 | > 100 | – | > 100 | > 100 | > 100 | > 100 | > 100 | > 100 | > 100 | > 100 | > 100 | > 100 | > 100
13 | O=C(O)C1(C(=O)O)CC1(C(=O)O)C(=O)O | > 100 | > 100 | > 100 | – | – | > 100 | > 100 | > 100 | > 100 | > 100 | > 100 | > 100 | > 100 | > 100 | > 100 | > 100 | > 100 | > 100 | – | > 100
14 | CCOC(=O)CC(=O)C(=O)NNC1=NCCCN1 | > 100 | > 100 | > 100 | – | > 100 | > 100 | > 100 | > 100 | > 100 | > 100 | – | > 100 | > 100 | > 100 | – | > 100 | > 100 | > 100 | > 100 | > 100
15 | COc1cccc2c(NNc3ccccc3)c3ccc([N+](=O)[O-])cc3nc12 | > 100 | > 100 | > 100 | > 100 | > 100 | > 100 | > 100 | > 100 | – | > 100 | > 100 | > 100 | > 100 | > 100 | > 100 | > 100 | > 100 | 5.84 | > 100 | > 100
16 | O=C(NCc1ccccc1)c1cc2cc(O)c(O)cc2cn1 | > 100 | 81.1 | 46.8 | > 100 | > 100 | > 100 | 43.1 | 89.7 | – | 89.9 | 73.1 | > 100 | 50.9 | 97.6 | 98.5 | 79.6 | 75.1 | – | – | –
17 | CCOc1ccccc1N=Nc1c(-c2ccccc2)nn(C(=O)CC(=O)Nc2cccc(Cl)c2)c1-c1ccccc1 | > 100 | > 100 | > 100 | – | > 100 | > 100 | > 100 | > 100 | – | > 100 | > 100 | > 100 | > 100 | > 100 | > 100 | > 100 | > 100 | > 100 | – | –
18 | O=C1C2=Cc3ccccc3OC2(O)Oc2cc(O)ccc21 (configuration not stated) | > 100 | > 100 | > 100 | > 100 | > 100 | > 100 | > 100 | > 100 | – | > 100 | > 100 | > 100 | > 100 | > 100 | > 100 | > 100 | > 100 | > 100 | > 100 | > 100
19 | CC(=O)Nc1ccc(C(=O)NN2C(=O)C(Cl)C2c2cc(Br)ccc2O)cc1 (configuration not stated) | > 100 | > 100 | > 100 | – | > 100 | > 100 | 45.5 | > 100 | > 100 | 36.1 | > 100 | > 91.9 | > 100 | > 100 | – | > 100 | > 100 | > 100 | > 100 | > 100
20 | CCOC(=O)C(Cc1ccccc1)NC(=O)c1ccc(N=NN(C)C)cc1 (configuration not stated) | > 100 | > 100 | > 100 | > 100 | – | > 100 | > 100 | > 100 | – | > 100 | > 100 | > 100 | > 100 | > 100 | > 100 | > 100 | > 100 | > 100 | – | –
21 | CCCCCCCCCCCCn1c(=O)cc(NCCCC)c2cc3c(NCCCC)cc(=O)n(CCCCCCCCCCCC)c3nc21 | > 100 | > 100 | > 100 | > 100 | > 100 | > 100 | > 100 | – | – | > 100 | > 100 | – | > 100 | > 100 | > 100 | – | > 100 | > 100 | > 100 | > 100
22 | CN(/N=C/c1cccs1)c1ccc(Cl)cc1[N+](=O)[O-] | > 100 | > 100 | > 100 | – | – | > 100 | > 100 | > 100 | 76.2 | 97.3 | > 100 | 75 | > 100 | – | > 100 | – | > 100 | > 100 | > 100 | > 100
23 | COc1[nH]c(C(Cl)(Cl)Cl)c(Cl)c(=O)c1Cl | > 100 | > 100 | > 100 | > 100 | > 100 | > 100 | – | > 100 | – | > 100 | > 100 | > 100 | > 100 | > 100 | > 100 | > 100 | – | > 100 | > 100 | > 100
24 | C=CCNC(=S)N1c2ccccc2NC(=O)CC1C (configuration not stated) | > 100 | > 100 | > 100 | – | – | > 100 | > 100 | > 100 | – | > 100 | – | > 100 | > 100 | > 100 | – | > 100 | > 100 | > 100 | – | –
25 | O=C(C#CP(=O)(O)c1ccccc1)c1ccccc1 | > 100 | > 100 | > 100 | > 100 | > 100 | > 100 | > 100 | > 100 | > 100 | – | > 100 | > 100 | > 100 | > 100 | > 100 | > 100 | > 100 | – | > 100 | –
26 | CC1(C)C(O)C[C@]23CCC[C@](C)(C[C@@H](O)C12)C3 (some centres not stated) | > 100 | > 100 | > 100 | – | > 100 | > 100 | > 100 | > 100 | > 100 | > 100 | > 100 | – | > 100 | > 100 | > 100 | > 100 | > 100 | > 100 | > 100 | –
27 | COc1ccc(CNC2=C(NC(C)=O)C(=O)c3ccccc3C2=O)cc1 | 18.1 | > 50 | 14.7 | – | 13 | 26.4 | > 50 | > 50 | – | > 50 | 21.7 | 21.9 | 14.1 | 19.2 | – | – | > 50 | 17.7 | – | –
